Data from patent US20090233893A1, “Methods of Dissolving Beta-Sheet Proteins and Uses Thereof” (priority 2006, published 2009).
“And” between values parts separate entries of the source, which are not always exact repeats. Identical values can stand only once. Marks after values point to notes of the source that are not given here.

Experiments:
Aβ 40 wild type peptide = molecular target: T1, Aβ 40 wild type peptide (Homo sapiens, UniProt P05067); assay: Dissolution of Aβ 40 wild type peptide by metallized chelator, FTIR amide bands; assay type: biochemical; settings: Aβ40 wt dissolved in 500 mM chelator/heavy water solution
T1 construct: The amide I band for the Aβ 40 wild type peptide; gift of Dr. Jorge Ghiso
Experimental: (§1) Each metal salt-chelator solution was prepared with a slight excess of metal salt. Chelator-dissolved proteins were then lyophilized twice to eliminate water and resuspended in 200 μl aliquots of heavy water for spectral analysis.
(§2) Fourier Transform Infrared (FTIR) Spectroscopy: Metal chelator-dissolved β-sheet samples were injected into a sample cell with calcium fluoride windows and 0.05 mm path length. The instrument (Nicolet Magna JR 560 Spectrometer, ThermoNicolet, Madison, Wis.) resolution was 4 cm^−1; 1000 scans were collected.
(§3) Spectral subtraction as well as curve fitting and second derivative analysis of the amide I bands was carried out with the software program, Grams/32 Spectral Notebase, version 4.02, level 1 (ThermoNicolet, Madison, Wis.). Curvefitting parameters were not restricted; the fraction of Lorentzian line shape was allowed to vary. The second derivative analysis was carried out using a Savitsky-Golay algorithm, using either a third or fourth degree polynomial fit.

[1] = test system: tau paired helical filaments; settings: basic 500 mM solution, 1:1 molar ratio
wool = wool tertiary structure is a bundle of α-helices; selectivity
Source text: Wool's tertiary structure is a bundle of α-helices. […] The polyproline II conformation of collagen places its dihedral angles in the immediate vicinity of those for the β-sheet structure on a Ramachandran plot. Thus, choice of cation confers selectivity.

[2] = molecular target: T2, Aβ 42 E22Q mutant peptide (Homo sapiens, UniProt P05067, E693Q); assay: Dissolution of Aβ 42 E22Q mutant peptide by metallized chelator, FTIR amide bands; assay type: biochemical; settings: Aβ42 E22Q dissolved in 500 mM chelator/heavy water solution
T2 sequence (P05067 672-713 E693Q): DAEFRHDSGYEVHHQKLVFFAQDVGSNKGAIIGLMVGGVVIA
Experimental: as §1, §2, §3

B. mori fibroin = settings: for Dissolution of fibroin: basic 500 mM solution, 1:1 molar ratio
[3] = molecular target: T3, Aβ 40 E22Q mutant peptide (Homo sapiens, UniProt P05067, E693Q); assay: Dissolution of Aβ 40 E22Q mutant peptide by metallized chelator, FTIR amide bands; assay type: biochemical; settings: Aβ40 E22Q dissolved in 500 mM chelator/heavy water solution
T3 sequence (P05067 672-711 E693Q): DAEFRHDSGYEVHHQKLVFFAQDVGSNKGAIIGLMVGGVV
Experimental: as §1, §2, §3

Aβ 42 wild type peptide = molecular target: T4, Aβ 42 wild type peptide (Homo sapiens, UniProt P05067); assay: Dissolution of Aβ 42 wild type peptide by metallized chelator, FTIR amide bands; assay type: biochemical; settings: Aβ42 wt dissolved in 500 mM chelator/heavy water solution
T4 construct: The amide I band for the Aβ 42 wild type peptide in the solid state; gift of Dr. Jorge Ghiso
Experimental: as §1, §2, §3

human erythrocytes = settings: Funder et al., 1978; cited from earlier work
[4] = Environmental Protection Agency (1999); cited from earlier work
Aβ 40 E22Q = Aβ 40 E22Q (Homo sapiens, UniProt P05067, E693Q); assay type: biochemical; settings: Aβ 40 E22Q incubated at room temperature for 67 hours, pH 7.4

SMILES | Amide I peak of metal chelator-dissolved peptide (Aβ 40 wild type peptide) | Amide II peak of metal chelator-dissolved peptide (Aβ 40 wild type peptide) [cm⁻¹] | Dissolution of paired helical filaments [1] | Dissolution of wool (wool) | Amide I peak of metal chelator-dissolved peptide [2] | Amide II peak of metal chelator-dissolved peptide [2] [cm⁻¹] | Dissolution of fibroin (B. mori fibroin) | Amide I peak of metal chelator-dissolved peptide [3] | Amide II peak of metal chelator-dissolved peptide [3] [cm⁻¹] | Amide I peak of metal chelator-dissolved peptide (Aβ 42 wild type peptide) | Amide II peak of metal chelator-dissolved peptide (Aβ 42 wild type peptide) | Increase of lithium influx into human erythrocytes over lithium chloride (human erythrocytes) | Speed of the dissolution process for the silk or fibroin fiber (B. mori fibroin; judged by eye, more rapid than in the Li^+ ethylene diamine bromide solution) | Toxicity, EPA determination [4] | Thioflavin T fluorescence yield less than that of the chelator-free aliquot (Aβ 40 E22Q) [%]
NCCN.[Br-].[Li+] [Li^+en, Li^+ ethylene diamine bromide] | 1629 cm⁻¹ and 1646 cm⁻¹ and 1673 cm⁻¹ | 1562 | can be dissolved | not found to dissolve | 1625‡ cm^−1 and 1673 cm^−1 | 1531 | can be dissolved | 1621‡ cm^−1 and 1673 cm^−1 | 1531 | 1626‡ cm^−1 and 1673 cm^−1 | 1562 cm⁻¹ |  |  |  | 
O=C([O-])O.[Li+] [Lithium bicarbonate] |  |  |  |  |  |  |  |  |  |  |  | twelve-fold |  |  | 
NCCN.[Cu+2].[OH-].[OH-] [Cu^2+en, Cu^2+ ethylene diamine hydroxide] | 1673 cm⁻¹ | 1594 | can be dissolved | not found to dissolve | 1673 cm⁻¹ | 1590 | can be dissolved | 1673 cm⁻¹ | 1590 | 1673 cm⁻¹ | 1534 cm⁻¹ and 1591 cm⁻¹ |  | instantaneous on contact | safe for human consumption | 27
